Results as given in PubChem BioAssay AID330 (DTP/NCI, 2004).
Where “and” joins values, the source holds several entries; their conditions need not be identical. Equal values may be shown once. Inconclusive results and toxic doses are left out. The calls were made as follows: active = survival T/C of 150% or more; inactive = T/C below 125% in these data.

Test system: P388 leukemia ip, CD2F1 mice, survival T/C
Assay: NCI In Vivo Anticancer Drug Screen. Data for tumor model P388 Leukemia (intraperitoneal) in CD2F1 (CDF1) mice
Conditions: endpoint: median survival time, higher = longer survival
How it was run: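 Mice carrying the transplanted tumor received test compound or vehicle. Survival was recorded in each group, and the value is the treated-group measurement divided by that of the vehicle-treated control group.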

[1] = dose: 60.0 mg/kg/injection, schedule: Q01DX005 (ip), vehicle: Klucel (hydroxypropylcellulose) (HPC)
[2] = dose: 120.0 mg/kg/injection, schedule: Q01DX005 (ip), vehicle: Klucel (hydroxypropylcellulose) (HPC)
[3] = dose: 50.0 mg/kg/injection, schedule: Q01DX009 (ip), vehicle: saline with Tween-80
[4] = dose: 100.0 mg/kg/injection, schedule: Q01DX009 (ip), vehicle: saline with Tween-80
[5] = dose: 200.0 mg/kg/injection, schedule: Q01DX009 (ip), vehicle: saline with Tween-80
[6] = dose: 50.0 mg/kg/injection, schedule: Q01DX005 (ip), vehicle: saline with Tween-80
[7] = dose: 100.0 mg/kg/injection, schedule: Q01DX005 (ip), vehicle: saline with Tween-80
[8] = dose: 200.0 mg/kg/injection, schedule: Q01DX005 (ip), vehicle: saline with Tween-80
[9] = dose: 50.0 mg/kg/injection, schedule: Q01DX009 (ip), vehicle: Klucel (hydroxypropylcellulose) (HPC)

Measured: T/C

Cc1c2c(=O)oc3ccc(Cl)cc3c2nn1-c1ccccc1
inactive: [1] 96 % of control | [2] 93 % of control

CCCCCCC(=O)/C=C/c1ccc(OC)c(OC)c1OC
inactive: [3] 96 % of control | [4] 96 % of control | [5] 102 % of control

COC(=O)C1(C(C)C(=O)c2ccccc2)NC(=S)NC(=O)C1C#N (configuration not stated)
inactive: dose: 60.0 mg/kg/injection, schedule: Q01DX005 (ip), vehicle: saline 88 % of control | dose: 120.0 mg/kg/injection, schedule: Q01DX005 (ip), vehicle: saline 98 % of control | dose: 240.0 mg/kg/injection, schedule: Q01DX005 (ip), vehicle: saline 100 % of control

CC12CCc3ccccc3C1=Nc1ccccc12 (configuration not stated)
inactive: [6] 103 % of control | [7] 104 % of control | [8] 91 % of control

Cc1nc(N)c2nonc2n1
inactive: dose: 25.0 mg/kg/injection, schedule: Q04DX003 (ip), vehicle: suspension in saline 98 % of control | dose: 50.0 mg/kg/injection, schedule: Q04DX003 (ip), vehicle: suspension in saline 103 % of control | dose: 100.0 mg/kg/injection, schedule: Q04DX003 (ip), vehicle: suspension in saline 94 % of control | dose: 200.0 mg/kg/injection, schedule: Q04DX003 (ip), vehicle: suspension in saline 95 % of control

CC(=O)/C=C/c1ccc(O)cc1
inactive: [3] 110 % of control | [4] 98 % of control | dose: 100.0 mg/kg/injection, schedule: Q04DX003 (ip), vehicle: saline with Tween-80 105 % of control | [5] 100 % of control | dose: 200.0 mg/kg/injection, schedule: Q04DX003 (ip), vehicle: saline with Tween-80 113 % of control | dose: 400.0 mg/kg/injection, schedule: Q04DX003 (ip), vehicle: saline with Tween-80 105 % of control

CCC1(C#N)N=C(c2ccccc2)c2ccccc2N1C(=O)OC (configuration not stated)
inactive: dose: 60.0 mg/kg/injection, schedule: Q01DX005 (ip), vehicle: saline with Tween-80 96 % of control | dose: 120.0 mg/kg/injection, schedule: Q01DX005 (ip), vehicle: saline with Tween-80 98 % of control | dose: 240.0 mg/kg/injection, schedule: Q01DX005 (ip), vehicle: saline with Tween-80 98 % of control

CC(C)(C)C1=CS(=O)(=O)C1
inactive: dose: 1.56 mg/kg/injection, schedule: Q01DX001 (ip), vehicle: saline with Tween-80 103 % of control | dose: 3.12 mg/kg/injection, schedule: Q01DX001 (ip), vehicle: saline with Tween-80 102 % of control

Nc1ccc(-c2nnc(-c3ccc(N)cc3)nn2)cc1
inactive: dose: 100.0 mg/kg/injection, schedule: Q01DX001 (ip), vehicle: saline 94 % of control | dose: 200.0 mg/kg/injection, schedule: Q01DX001 (ip), vehicle: saline 92 % of control | dose: 400.0 mg/kg/injection, schedule: Q01DX001 (ip), vehicle: saline 95 % of control

CCN(CC)C(=S)SC(=S)N(CC)CC
inactive: [4] 108 % of control | [5] 104 % of control | dose: 400.0 mg/kg/injection, schedule: Q01DX009 (ip), vehicle: saline with Tween-80 103 % of control

COc1cc2c(cc1C(C)c1ccc(OCC(=O)O)cc1)OCO2 (configuration not stated)
inactive: dose: 50.0 mg/kg/injection, schedule: Q01DX005 (ip), vehicle: distilled water + Tween-80 96 % of control | dose: 100.0 mg/kg/injection, schedule: Q01DX005 (ip), vehicle: distilled water + Tween-80 105 % of control | dose: 200.0 mg/kg/injection, schedule: Q01DX005 (ip), vehicle: distilled water + Tween-80 100 % of control

CCOC(=O)CCCCCCNC(=S)N1c2c(nc(N)[nH]c2=O)NCC1CNc1ccc(C(=O)NC(CCC(=O)O)C(=O)O)cc1 (configuration not stated)
inactive: dose: 50.0 mg/kg/injection, schedule: Q01DX001 (ip), vehicle: sodium bicarbonate 100 % of control | dose: 100.0 mg/kg/injection, schedule: Q01DX001 (ip), vehicle: sodium bicarbonate 100 % of control | dose: 200.0 mg/kg/injection, schedule: Q01DX001 (ip), vehicle: sodium bicarbonate 98 % of control

CCCCCCCCCCCCS(=O)(=O)O
inactive: dose: 3.12 mg/kg/injection, schedule: Q01DX009 (ip), vehicle: saline with Tween-80 119 % of control | dose: 6.25 mg/kg/injection, schedule: Q01DX009 (ip), vehicle: saline with Tween-80 111 % of control and 119 % of control | dose: 12.5 mg/kg/injection, schedule: Q01DX009 (ip), vehicle: saline with Tween-80 110 % of control and 112 % of control

COc1ccc(COC(=O)Sc2nc(C)cc(C)n2)cc1
inactive: dose: 50.0 mg/kg/injection, schedule: Q01DX005 (ip), vehicle: Klucel (hydroxypropylcellulose) (HPC) 101 % of control | dose: 100.0 mg/kg/injection, schedule: Q01DX005 (ip), vehicle: Klucel (hydroxypropylcellulose) (HPC) 100 % of control | dose: 200.0 mg/kg/injection, schedule: Q01DX005 (ip), vehicle: Klucel (hydroxypropylcellulose) (HPC) 102 % of control

O=C(c1ccccc1)c1c(-c2ccccc2)c(C(=O)c2ccccc2)n2ccccc12
inactive: [9] 108 % of control | dose: 100.0 mg/kg/injection, schedule: Q01DX009 (ip), vehicle: Klucel (hydroxypropylcellulose) (HPC) 105 % of control | dose: 200.0 mg/kg/injection, schedule: Q01DX009 (ip), vehicle: Klucel (hydroxypropylcellulose) (HPC) 93 % of control

CCCCCCCC/C=C\CCCCCCCCN1CC(C(=O)[O][Pb]([CH2]C)([CH2]C)[CH2]C)CC1=O (configuration not stated)
inactive: dose: 0.75 mg/kg/injection, schedule: Q01DX009 (ip), vehicle: saline with Tween-80 105 % of control | dose: 1.5 mg/kg/injection, schedule: Q01DX009 (ip), vehicle: saline with Tween-80 105 % of control | dose: 6.0 mg/kg/injection, schedule: Q01DX009 (ip), vehicle: saline with Tween-80 115 % of control

COc1ccc(N2C(=S)N(c3cccc(Cl)c3Cl)C(=O)C(N=Nc3ccccc3Cl)C2O)cc1 (configuration not stated)
inactive: dose: 100.0 mg/kg/injection, schedule: Q04DX003 (ip), vehicle: distilled water + alcohol 102 % of control | dose: 200.0 mg/kg/injection, schedule: Q04DX003 (ip), vehicle: distilled water + alcohol 99 % of control | dose: 400.0 mg/kg/injection, schedule: Q04DX003 (ip), vehicle: distilled water + alcohol 97 % of control

COC(=O)CC(=O)C(C(=O)OC)C(CCc1ccccc1)C(C(=O)CC(=O)OC)C(=O)OC (configuration not stated)
inactive: dose: 25.0 mg/kg/injection, schedule: Q01DX001 (ip), vehicle: saline with Tween-80 97 % of control | dose: 50.0 mg/kg/injection, schedule: Q01DX001 (ip), vehicle: saline with Tween-80 94 % of control | dose: 100.0 mg/kg/injection, schedule: Q01DX001 (ip), vehicle: saline with Tween-80 94 % of control

C=[CH][Sn]([CH]=C)([CH2]C)[CH2]C
inactive: dose: 50.0 mg/kg/injection, schedule: Q01DX005 (ip), vehicle: saline 102 % of control | dose: 100.0 mg/kg/injection, schedule: Q01DX005 (ip), vehicle: saline 104 % of control | dose: 200.0 mg/kg/injection, schedule: Q01DX005 (ip), vehicle: saline 114 % of control

CCCCCN(CCCCC)c1ccc(/C=C/c2ccnc3ccccc23)cc1
inactive: [9] 98 % of control | dose: 400.0 mg/kg/injection, schedule: Q01DX009 (ip), vehicle: Klucel (hydroxypropylcellulose) (HPC) 104 % of control

Cn1c2ccccc2c(=O)c2cc(NC(=O)CCCC(=O)Nc3ccc4c(c3)c(=O)c3ccccc3n4C)ccc21
inactive: [6] 98 % of control | [7] 99 % of control | [8] 101 % of control

O=C(O)/C=C\C(=O)N[C@H]1CCSC1=O
inactive: [1] 94 % of control | [2] 94 % of control | dose: 240.0 mg/kg/injection, schedule: Q01DX005 (ip), vehicle: Klucel (hydroxypropylcellulose) (HPC) 90 % of control

Clc1cc(Cl)c2c(c1)[nH]c1nc3ccccc3nc12
inactive: dose: 6.25 mg/kg/injection, schedule: Q01DX005 (ip), vehicle: saline with Tween-80 101 % of control | dose: 12.5 mg/kg/injection, schedule: Q01DX005 (ip), vehicle: saline with Tween-80 90 % of control | [6] 96 % of control | [7] 100 % of control | [8] 104 % of control
